For 19 compounds, Ki and Selectivity ratio results are on record in ChEMBL document CHEMBL1146864, “Aryloxyethylamines: binding at alpha7 nicotinic acetylcholine receptors” (Bioorg Med Chem Lett, 2006).

Assay [1] has as its target Neuronal acetylcholine receptor subunit alpha-7 (Rattus norvegicus, UniProt Q05941). Description: Displacement of [125I]iodo-MLA from alpha-7 nAChR in rat cerebral cortex. It counts as tissue-based. In general terms: Displacement assays read how much labelled ligand stays bound in the presence of the test substance.
Assay [2] can be described thus: Selectivity for alpha-7 over alpha4beta2.

SMILES strings stand for the structures.

One may read the Ki as the dissociation constant of the complex between target and ligand, obtained from inhibition or displacement.

Chain of Neuronal acetylcholine receptor subunit alpha-7 (Q05941 whole entry): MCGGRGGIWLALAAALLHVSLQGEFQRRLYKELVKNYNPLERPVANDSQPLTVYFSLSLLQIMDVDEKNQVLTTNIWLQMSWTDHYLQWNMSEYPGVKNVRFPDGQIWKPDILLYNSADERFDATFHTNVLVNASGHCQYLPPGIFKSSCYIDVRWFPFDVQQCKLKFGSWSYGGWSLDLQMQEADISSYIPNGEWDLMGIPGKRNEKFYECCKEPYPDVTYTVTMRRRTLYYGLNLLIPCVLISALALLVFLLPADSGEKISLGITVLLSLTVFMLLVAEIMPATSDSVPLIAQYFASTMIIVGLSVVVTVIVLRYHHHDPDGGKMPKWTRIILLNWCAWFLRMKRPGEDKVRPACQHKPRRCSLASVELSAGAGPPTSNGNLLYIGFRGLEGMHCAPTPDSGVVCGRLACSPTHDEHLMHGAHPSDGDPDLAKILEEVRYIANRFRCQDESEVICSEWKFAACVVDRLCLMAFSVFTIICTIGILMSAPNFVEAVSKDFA

Take `CNC/C=C\c1cccnc1`: the Ki in assay [1] is over 10 µM. Same read-out and setting: under `CN(C)CCOc1ccccc1` stands over 10 µM; under `CCN(C)CCOc1cccnc1`, over 10 µM. In the case of `CNCCOc1cccnc1`, the Ki in assay [1] is over 10 µM.

Compound `CN(C)CCOc1cccnc1` yielded an inhibition constant Ki in assay [1] of over 10 µM. Consider `CN(C)CCOc1ccc(/C=C/c2ccccc2)cc1`, for which, in assay [1], the inhibition constant Ki is over 10 µM.

`C[N+](C)(C)CCOc1ccccc1` returned a Ki in assay [1] of 1.1 µM.

In turn, `CNC/C=C/c1cccnc1` gave an inhibitory constant (Ki) in assay [1] of over 10 µM. In the case of `C[N+](C)(C)CCOc1ccc(CCc2ccccc2)cc1`, the inhibition constant Ki in assay [1] turned out to be 7.5 µM.

In turn, `C[N+](C)(C)CCOc1ccc(CCc2ccccc2)nc1` had an inhibition constant (Ki) in assay [1] of 4.32 µM. `CNCCCc1cccnc1`: the inhibition constant (Ki) in assay [1] is over 10 µM. On to `CN1CCCC1c1ccc(CCc2ccccc2)nc1` (racemic), for which, in assay [1], the inhibition constant Ki is over 10 µM. On to `CN(C)CCOc1ccc(CCc2ccccc2)nc1`, for which, in assay [1], the Ki was over 10 µM. Consider `C[N+](C)(C)CCOc1cccnc1`, for which, in assay [2], the Selectivity ratio amounted to 560. The same compound had a Ki in assay [1] of 0.28 µM. In turn, `C[N+](C)(C)CCCOc1cccnc1` came in with a Ki in assay [1] of over 10 µM. Same read-out and setting: the same measure for `CN(C)CCOc1ccc(/C=C/c2ccccc2)nc1`: over 10 µM; for `C[N+](C)(C)CCOc1ccc(/C=C/c2ccccc2)cc1`: 2.17 µM. Turning to `CN(C)CCOc1ccc(CCc2ccccc2)cc1`, the Ki in assay [1] was over 10 µM.

On to `C[N+](C)(C)CCOc1ccc(/C=C/c2ccccc2)nc1`, for which, in assay [1], the inhibition constant (Ki) amounted to 1.25 µM.
